Test results from US20200030278A1, “PHARMACEUTICAL COMPOSITIONS OF METAP-2 INHIBITORS” (Zafgen, Inc., priority 2017, published 2020).
≈ marks a conversion by molar mass, not a printed value. Read-outs that look alike come from different tables or passages of the source.

Experiments:
[1] = Duration of plasma exposure after subcutaneous dosing, summary over species; format: in vivo, rat, dog, rabbit, human
[2] = Protein binding in rat plasma (dialysis); format: in vitro ADME; details: Rat Plasma, read-out: % Bound (Mean) (converted)
[3] = Solubility (pH 7); format: physicochemical; details: pH 7, aqueous buffer
[4] = logD7.4 (physicochemical properties); details: pH 7.4
[5] = Pharmacokinetics after subcutaneous administration in rabbits; format: in vivo, Rabbit
Description: (§1) Assessment of differences in pharmacokinetics following subcutaneous administration reflect both differences in the pharmacokinetic properties of the compounds and differences in pharmaceutical factors that affect absorption of the formulations from the injection sites.

[6] = Protein binding in mouse plasma (dialysis); format: in vitro ADME; details: read-out: % Bound (Mean) (converted)
[7] = pKa (physicochemical properties)
[8] = Protein binding in human plasma (dialysis); format: in vitro ADME; details: Human Plasma, 120 nM; read-out: % Bound (Mean) (converted)
[9] = Pharmacokinetic study in dogs, single s.c. injection (Example 3); details: both, beagle, dog, plasma, sc, 0.6 mg/kg
Description: Male and female beagle dogs of 9 to 11 months of age for PK characterization were individually housed at the testing facility Approximately 325 g of pelleted food was provided daily. […] Animals were observed twice daily for signs of ill health, morbidity, mortality, injury, and viability, and detailed clinical observations were conducted daily (including urine/fecal examination and hands-on examination). Food was weighed daily, and body weights were recorded at least weekly.
Samples were collected in tubes containing lithium heparin and processed for plasma by centrifugation (10 minutes at 3000 rpm). Supernatant was removed and stored frozen (−70° C.) until processed (BASi, West Lafayette, Ind.). Plasma drug concentration data were used to calculate PK parameters for individual concentration data using noncompartmental PK methods in Watson™ version 7.3.0.01 (Thermo Fisher Scientific, Inc., Waltham, Mass.).

[10] = Protein binding in dog plasma (dialysis); format: in vitro ADME; details: Dog Plasma, read-out: % Bound (Mean) (converted)
[11] = Pharmacokinetics after subcutaneous administration in dogs; format: in vivo; details: beagle, plasma, Dog, SC, 0.6 mg/kg
Description: (§2) Animal experiments were performed in accordance with the Guide for the Care and Use of Laboratory Animals as adopted and promulgated by the U.S. National Institutes of Health or local equivalent and were approved by the Institution's Animal Care and Use Committee or local equivalent. Unless described otherwise, animals (mouse, rat, and dog studies) were maintained under standard conditions (12-hour light/dark cycle and approximately 21±4° C. and 55±15% relative humidity), and food (Rodent pellet chow [Research Diets, Brunswick N.J., or similar] or canine pellet [Certified Dog Diet 2021C, Harlan Teklad Diets, Madison, Wis.] or canned [i.e., Cesar® Mars Petcare, Victoria, Australia]) and water were available ad libitum. Unless described otherwise, drug formulations were administered s.c. daily (efficacy studies) or every 3 days (Q3D; safety studies).
as §1

[12] = clinical trials in patients with obesity, PWS, or type 2 diabetes; cited from earlier work
[13] = Major metabolites in rats dosed SC; format: in vivo
[14] = Pharmacokinetics after intravenous administration in dogs; details: in vivo, Dog, IV Bolus, 0.142 mg/kg
Description: as §2

[15] = Hepatocyte incubation, metabolic profile, dog; format: in vitro ADME
[16] = Pharmacokinetics after subcutaneous administration in humans; format: in vivo, Human; details: Human, SC, 2 mg
Description: as §1

[17] = Hepatocyte incubation, metabolic profile, rat; format: in vitro ADME
[18] = Pharmacokinetics after subcutaneous administration in rats; format: in vivo; details: plasma; Rat, SC, 6 mg/kg
Description: as §2, §1

[19] = Pharmacokinetics after intravenous administration in rats; details: in vivo, Rat, IV Bolus, 3 mg/kg
Description: as §2

[20] = Hepatocyte incubation, metabolic profile, human; format: in vitro ADME
[21] = Toxicology study in the rat, s.c. Q3D for 28 days; format: in vivo, Sprague Dawley rats; details: for NOAEL at 28 days / Cmax / AUC(0-t): Sprague Dawley, rat, in vivo, sc; for NOAEL at 28 days / Mortality/early euthanasia: s.c. Q3D, 4 weeks; for AUC(0-t): read-out: AUC0-t at NOAEL; for Mortality/early euthanasia: rats
Description: Male and female Sprague Dawley rats 9-10 weeks of age (Envigo RMS, Inc., Indianapolis, Ind. or Orient Bio Inc., Gyeonggi-do, South Korea) were individually housed at the testing facility. […] Animals were allocated to treatment groups based on body weight, and body weight and food consumption were recorded weekly. […] At necropsy, macroscopic pathologic findings were recorded, sperm motility and morphology were determined, selected organs were weighed, and selected tissues were collected for microscopic examination.

[22] = female, 2 mg/kg, Day 1, female rats, NOAEL 2 mg/kg
[23] = female, 2 mg/kg, Day 31, female rats, NOAEL 2 mg/kg
[24] = male, 0.6 mg/kg, Day 1, male rats, NOAEL 0.6 mg/kg
[25] = male, 0.6 mg/kg, Day 31, male rats, NOAEL 0.6 mg/kg

CO[C@@H]1[C@H](OC(=O)/C=C/c2ccc(OCCN(C)C)cc2)CC[C@]2(CO2)[C@H]1[C@@]1(C)O[C@@H]1CC=C(C)C [beloranib, reference compound]
interval between doses with plasma concentrations at background / minimal exposure ([1]; dosing once every 3 days in animals and twice a week in humans): approximately 48 hours
plasma concentration at 24 hours after dosing ([1]; subcutaneous, rat, dog, and human): quantifiable
fraction unbound at 60 nM ([2]; 60 nM): 0.0285
fraction unbound at 120 nM ([2]; 120 nM): 0.055
fraction unbound at 240 nM ([2]; 240 nM): 0.0415
fraction unbound at 480 nM ([2]; 480 nM): 0.0326
fraction unbound at 1000 nM ([2]; 1000 nM): 0.0434
fraction unbound ([2]; All concentrations): 0.0402
solubility [3]: 300 µg/mL (≈ 600 µM)
logD7.4 [4]: 2.72
AUC(0-t) ([5]; plasma, Rabbit, SC, 1 mg/kg): 222 ± 9 ng·h/mL
Cmax ([5]; plasma, Rabbit, SC, 1 mg/kg): 52 ± 4.1 ng/mL
Tmax ([5]; plasma, Rabbit, SC, 1 mg/kg): 1.7 ± 0.6 h
half-life ([5]; plasma, Rabbit, SC, 1 mg/kg): 1.7 ± 0.3 h
plasma concentration at 8 hours after dosing ([5]; rabbit, subcutaneous): still quantifiable
fraction unbound at 60 nM ([6]; 60 nM): 0.0181
fraction unbound at 120 nM ([6]; 120 nM): 0.0191
fraction unbound at 240 nM ([6]; 240 nM): 0.0259
fraction unbound at 480 nM ([6]; 480 nM): 0.0222
fraction unbound at 1000 nM ([6]; 1000 nM): 0.0212
fraction unbound ([6]; All concentrations): 0.0213
pKa [7]: 9.4
fraction unbound at 120 nM [8]: 0.0544
half-life [9]: 9.3 h
fraction unbound at 480 nM ([10]; 480 nM): 0.045
fraction unbound at 1000 nM ([10]; 1000 nM): 0.059
AUC(0-t) [11]: 182 ± 73 ng·h/mL
Cmax [11]: 16.6 ± 12.3 ng/mL
Tmax [11]: 3.5 ± 1 h
half-life ([11]; N = 1): 7.84 h
adverse events (AEs) [12]: venous thromboembolism
pathway giving the major metabolites observed [13]: GSH conjugation and subsequent metabolic degradation of the GSH conjugates
clearance [14]: 33.3 mL/min/kg
half-life [14]: 2.9 ± 0.29 h
Vd ([14]; read-out: Vdss): 5.07 ± 0.23 L/kg
metabolic profile / predominant pathway in hepatocytes [15]: glutathione (GSH) conjugation pathways being predominant
kel [16]: 0.0885 ± 0.0266 h⁻¹
AUC(0-inf) ([16]; plasma): 5.44 ± 1.81 ng·h/mL
half-life ([16]; plasma): 8.44 ± 2.49 h
Cmax ([16]; plasma, read-out: Cmax): 1 ± 1.1 ng/mL
Tmax ([16]; plasma, read-out: Tmax): 1.58 ± 1.28 h
metabolic profile / predominant pathway in hepatocytes [17]: glutathione (GSH) conjugation pathways being predominant
AUC(0-t) [18]: 412 ng·h/mL
Cmax [18]: 270 ng/mL
Tmax [18]: 0.5 h
half-life [18]: 1.8 h
clearance [19]: 113 mL/min/kg
half-life [19]: 1.05 ± 0.23 h
Vd ([19]; read-out: Vdss): 5.08 ± 0.29 L/kg
metabolic profile / predominant pathway in hepatocytes [20]: glutathione (GSH) conjugation pathways being predominant
NOAEL at 28 days ([21]; female rats, read-out: NOAEL (F)): 2 mg/kg
NOAEL at 28 days ([21]; male rats, read-out: NOAEL): 0.6 mg/kg
Cmax [21, 22]: 28.5 ng/mL
AUC(0-t) [21, 22]: 96.9 ng·h/mL
Cmax [21, 23]: 19.2 ng/mL
AUC(0-t) [21, 23]: 56.7 ng·h/mL
Cmax [21, 24]: 19.2 ng/mL
AUC(0-t) [21, 24]: 36.8 ng·h/mL
Cmax [21, 25]: 8.17 ng/mL
AUC(0-t) [21, 25]: 29 ng·h/mL
Mortality/early euthanasia [21]: mortality was noted by Days 16-24
Mortality/early euthanasia ([21]; listed as Beloranib): 4/15 males in the 6 mg/kg dose
